US20090186809A1, “USE OF VALPROIC ACID FOR THE TOPICAL TREATMENT OF MILD TO MODERATE ACNE VULGARIS” (TOPOTARGET GERMANY AG, priority 2006, published 2009)

What was measured:
[1] = system: mild to moderate facial acne vulgaris; assay: double-blind, randomized clinical study: counting of facial acne lesions; format: in vivo, human; settings: for patients displaying for the first time a reduction of ≧30% in the total counts of all acne lesions: topical once daily, VPA 3% gel, isotretinoin 0.05% gel; for mean reduction of the number of acne lesions: day 85 compared to baseline (day 1), topical monotherapy
Experimental: This study was carried out as a double-blind, randomized study. Under informed consent patients with mild to moderate facial acne vulgaris were enrolled in the study. The treatment period was 12 weeks.
(§1) VPA was provided as a clear off-white, semi-solid 3% gel (30 mg/ml VPA). After washing the face with a mild cleanser, the gel was applied daily to the clean and dry skin once daily.
As a comparator reference therapy the retinoid isotretinoin was provided as a 0.05% gel (0.5 mg isotretinoin/g).
• Assessment of the therapeutic efficacy compared to the baseline was evaluated separately by the investigator and by the patient according to a 7-point scale • Counting of lesions in the entire face • Investigator's overall assessment of improvement by means of a photo documentation.
• efficacy: change of total count of facial acne lesions from baseline to the end of week 12 (comparing day 1 to day 85, i.e., d1, d85)
• efficacy: time to reduction of acne lesions by >30% • count of acne lesions in the face after 2, 4, 8 and 12 weeks of treatment and its percentage and absolute change to baseline • safety/tolerability: safety laboratory parameters • clinical safety • patient's assessment of local tolerability
In the clinical study described in Example 1, also the time to reduction of the total counts by ≧30% of all acne lesions treated was investigated on each visit of the patients to the study hospital. Once the reduction had reached ≧30%, the actual at this point estimated reduction rate and the day of the visit was recorded.
In the clinical study described in Example 1, the counts of acne lesions treated were also assessed as counts of different types of lesions separately, i.e., recording the number of inflammatory lesions, and recording the number of non-inflammatory lesions separately.

[2] = VPA content in blood (serum) after topical application, HPLC; format: in vivo; settings: human, read-out: serum level of VPA
Experimental: as §1
In parallel, an analysis of the VPA content in the blood of acne vulgaris patients treated topically with a 3% VPA containing medication was performed using HPLC based methodology, and the results are presented in FIG. 3. […] These serum concentration levels were measured after daily treatment with up to approx. 2.000 mg of a 3% VPA containing medication topically applied which refers to a total daily dose of VPA approx. 60 mg. If more or larger lesions would be treated, and therefore higher daily amounts of VPA would be topically applied, it is expected that accordingly higher serum levels may be obtained.

[3] = patients' assessment of local tolerability (5-point scale) and adverse events; format: in vivo, human; settings: for assessments of local tolerability graded "acceptable" / assessments of local tolerability graded "poor" / assessments of local tolerability graded "well": percentage of all patient assessments over the study visits, topical
Experimental: • Safety laboratory parameters • Clinical safety examinations • Adverse events • Patient's assessment of local tolerability according to a 5-point scale.
In addition to the assessment of the therapeutical efficacy, the patients' assessments of local tolerability and the side effect profile was recorded in this clinical study described in example 1. FIG. 4 summarizes the patients' assessments of local tolerability which was recorded on each visit of the patients during the study period which took place on days 14, 24, 56 and 85. The patients assessed their perception of local tolerability according to the following grading scheme: […]

SMILES | patients displaying for the first time a reduction of ≧30% in the total counts of all acne lesions ([1]; day 28) | patients displaying for the first time a reduction of ≧30% in the total counts of all acne lesions ([1]; day 85) | mean reduction of the number of acne lesions [1] | median counts of inflammatory lesions ([1]; end of treatment day 85, day 1 before treatment 30) [lesions] | median counts of non-inflammatory lesions ([1]; end of treatment day 85, day 1 before treatment 41) [lesions] | concentration at 56 day ([2]; day 56, daily topical up to approx. 2.000 mg of 3% VPA medication (approx. 60 mg VPA)) [ng/mL] | concentration at 85 day ([2]; day 85, daily topical up to approx. 2.000 mg of 3% VPA medication (approx. 60 mg VPA)) [ng/mL] | adverse events observed ([3]; patients treated topically, all resolved after end of study) | assessments of local tolerability graded "acceptable" [3] [%] | assessments of local tolerability graded "poor" [3] [%] | assessments of local tolerability graded "well" [3] [%]
CCCC(CCC)C(=O)O [VPA, 2-propyl-pentanoic acid] | three | two | approx. 57% | 14.4 | 11.5 | ≤ 2440 | ≤ 1590 | mild to moderate administration site conditions | 23.8 | 4.8 | 61.9
CC1=C(/C=C/C(C)=C/C=C/C(C)=C\C(=O)O)C(C)(C)CCC1 [isotretinoin] | three | two | approx. 54% |  |  |  |  |  | 40.5 | 11.9 | 38.1
